In patent US7723324B2 (priority 2003, dated 2010):

How the values were obtained:
[1] = biological target: T1, peripheral benzodiazepine receptors (Rattus norvegicus, UniProt P16257); assay: benzodiazepine receptor binding (test of LeFur et al.), peripheral
T1 construct: from tissue; Rat heart membranes according to own knowledge of the cited Le Fur et al. method
Experimental: Compounds of the invention were assessed for their binding to the benzodiazepine receptor by the test of Speth et al. [Life Sci. 24, 351 (1979)] for central benzodiazepine receptors and LeFur et al. [Life Sci. 33, 449 (1983)] for peripheral receptors. The compounds were tested first at 1.00E-09, 1.0E-07 and 1.0E-05 M in single determination. […] The specific ligand binding to the receptor is defined as the difference between the total binding and the nonspecific binding determined in the presence of an excess of unlabelled ligand. In each experiment, the respective reference compound was tested concurrently with the test compounds in order to assess the assay suitability. It was tested at several concentrations (for IC50 value determination), and the data were compared with historical values. The assay was rendered valid if suitability criteria were met.
However, the invention is not limited to the compounds found in the Tables.

[2] = maze test, which tests anxiety; format: in vivo; details: 10 mg/kg
Experimental: The compounds of Example 1d (also found in Example 6d), Example 22d, and Example 35d, were also tested in vivo using the maze test, which tests anxiety [Montgomery, J. Comparative and Physiological Psychology 48, 254-60 (1955); Handley et al., Naunyn-Schmiedeberg's Archives of Pharmacology 327, 1-5 (1984); Lister, Psychopharm. 92, 180-85 (1987); Pellow et al., J. Neuroscience Methods 14, 149-67 (1985); Rodgers et al., Ethology and Psychopharmacology, S. J. Cooper and C. A. Hendrie (eds), John Wiley & Sons, Ltd., 9-43 (1994); and Trullas et al., Psychopharm. 111, 323-31 (1993)]. The results of the maze test for these compounds are found in FIGS. 1a, 1b, 2a, 2b, 3a, and 3b. FIGS. 1a, 2a, and 3a are graphs of the Number of Entries in Open Arms vs. mg/kg (dose of administered compound). FIGS. 1b, 2b, and 3b plot the Percent of Time Spent in Open Arms vs. mg/kg (dose of administered compound). […] The results of the maze test are accepted by persons of skill in the art as predictive of therapeutic utility.

T1 sequence (P16257 whole entry): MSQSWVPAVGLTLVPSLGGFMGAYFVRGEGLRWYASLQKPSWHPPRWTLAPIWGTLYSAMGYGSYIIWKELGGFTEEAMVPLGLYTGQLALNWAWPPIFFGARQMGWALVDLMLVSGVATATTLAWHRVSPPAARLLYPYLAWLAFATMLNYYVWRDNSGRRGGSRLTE

Structure (SMILES)	IC50 ([1]; Table 1a)	also measured
Cc1ccc(-c2nc3ccc(C)cn3c2CC(=O)c2cccn2C)cc1	> 10000 nM	
Cc1ccc(-c2nc3ccc(C)cn3c2CC(=O)c2c(C)nc3ccccn23)cc1	1600 nM	
Cc1ccc(-c2nc3ccc(C)cn3c2CC(=O)c2cc(C)n[nH]2)cc1	> 10000 nM	
Cc1ccc(-c2nc3ccc(C)cn3c2CC(=O)c2cc3ccccc3n2C)cc1	540 nM	
Cc1ccc(-c2nc3ccc(C)cn3c2CC(=O)c2cnn3c(C)cc(C)nc23)cc1	> 10000 nM	
COc1ccc(-c2nc3ccc(C)cn3c2CC(=O)c2cccn2C)cc1		IC50 ([1]; Table 1b): 1700 nM
COc1ccc(-c2nc3ccc(C)cn3c2CC(=O)c2cnn3c(C)cc(C)nc23)cc1		IC50 ([1]; Table 1b): > 10000 nM
Cc1ccc(-c2nc3ccc(C)cn3c2C2CCN(C)C2=O)cc1 (stereo not shown)		IC50 ([1]; Table 2): > 10000 nM
Cc1ccc(-c2nc3ccc(C)cn3c2CC(=O)c2cccs2)cc1 [Example 1d, 2-(6-Methyl-2-p-tolyl-imidazo[1,2-a]pyridin-3-yl)-1-thiophen-2-yl-ethanone]		maze test activity (Number of Entries in Open Arms, Percent of Time Spent in Open Arms) [2]: statistically significant activity
COc1ccsc1C(=O)Cc1c(-c2ccc(C)cc2)nc2ccc(C)cn12 [Example 22D, 1-(3-Methoxy-thiophen-2-yl)-2-(6-methyl-2-p-tolyl-imidazo[1,2-a]pyridin-3-yl)-ethanone]		maze test activity (Number of Entries in Open Arms, Percent of Time Spent in Open Arms) [2]: statistically significant activity
